{"source": "patent US8901145B2", "about": "“Aminopyrimidine kinase inhibitors” (Jasco Pharmaceuticals, LLC, priority 2011, dated 2014)", "key": {"[1]": {"molecular_target": "Pim-3(h) (Homo sapiens, UniProt Q86V86)", "experiment": "Enzyme activity, ATP = Km, Pim-3(h)", "format": "biochemical", "settings": "300 nM of compound, ATP concentration = Km"}, "[2]": {"molecular_target": "Pim-2(h) (Homo sapiens, UniProt Q9P1W9)", "sequence (Q9P1W9 whole entry)": "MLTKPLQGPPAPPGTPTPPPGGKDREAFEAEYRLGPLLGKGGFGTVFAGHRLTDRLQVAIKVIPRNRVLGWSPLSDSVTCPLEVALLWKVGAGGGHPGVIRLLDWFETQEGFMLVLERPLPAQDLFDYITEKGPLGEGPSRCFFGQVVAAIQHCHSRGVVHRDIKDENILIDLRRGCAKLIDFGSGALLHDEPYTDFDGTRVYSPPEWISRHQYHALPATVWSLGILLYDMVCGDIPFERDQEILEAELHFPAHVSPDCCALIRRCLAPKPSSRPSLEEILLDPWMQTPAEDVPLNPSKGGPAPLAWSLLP", "experiment": "Enzyme activity, ATP = Km, Pim-2(h)", "format": "biochemical", "settings": "300 nM of compound, ATP concentration = Km"}, "[3]": {"system": "NCI-H929", "experiment": "Cell proliferation inhibition (MTS), NCI-H929", "format": "cell-based, human", "settings": "NCI-H929, 72 hours", "protocol": "(§1) All cells were cultured in media supplemented with 10% FBS except for which are marked specially, in the temperature of 37° C., 5% CO2 and 95% humidity. All culture media were purchased from GIBCO (USA, IMDM Cat. 12200-036; RPMI Medium 1640 Cat. 31800-022; 2-mercaptoethanol Cat. 21985-023).\n(§2) • 1. The cells were harvested respectively during the logarithmic growth period and counted with hemocytometer. The cell viability was over 98% by trypan blue exclusion. • 2. Cell concentrations were adjusted to 2.22×10^5 or 1.11×10^5 or 5.56×10^4 cells/mL with respective medium. • 3. 90 μL cell suspensions were added to 96-well plates (triplicates for each cell concentration), the final cell densities were 2×10^4 or 1×10^4 or 5×10^3 cells/well. The density of 5×10^3 cells/well was used for the first test. The appropriate cell density was determined and adjusted according to the results of the first test. • 4. The next day, test article or positive drugs were dissolved with DMSO as stock solution at the concentration of 20 mM. • 5. 10 μL drug solution was dispensed in each well (triplicate for each drug concentration). • 6. Plates were cultured for another 72 hours, then measured by means of MTS assay. • 7. MTS/PMS solution was prepared immediately prior to use. […] Absorbance at 490 nm was recorded using SpectraMAX Plus microplate spectrophotometer. […]"}, "[4]": {"system": "Panc-1", "experiment": "Cell proliferation inhibition (MTS), Panc-1", "format": "cell-based, human", "settings": "Panc-1, 72 h", "protocol": "(§3) All cells were cultured in the media supplemented with 10% FBS in the temperature of 37° C., 5% CO2 and 95% humidity. All culture media were purchased from GIBCO.\n(§4) • 1. Cells were harvested respectively during the logarithmic growth period and counted with hemocytometer. Cell viability was over 98% by trypan blue exclusion. • 2. Dilute cells with respective medium to achieve 1.11×10^5 cells/mL for LNCaP cells, 2.22×10^5 cells/mL for KU812 cells, 5.56×10^4 cells/mL for Panc-1 cells. • 3. Add 90 μL cell suspensions to 96-well plate, the final cell densities are 1×10^4 cells/well for LNCaP cells, 2×10^4 cells/well for KU812 cells, and […] cells/well for Panc-1 cells, respectively. • 4. The next day, dilute the test article or positive drugs with DMSO or PBS. • 5. Dispense 10 μL drug solution in each well (triplicate for each drug concentration). • 6. The plates were cultured for another 72 hours, then measured using MTS assay. • 7. Prepare MTS/PMS solution immediately prior to use, pipet 20 μL of the mixture into each well of the 96 well assay plate containing 100 μL culture medium. (The final reaction volume is 120 μL). • 8. Incubate the plate for 1-4 hours at 37° C. in a humidified, 5% CO2 atmosphere. • 9. Record the absorbance at 490 nm using Synergy2 Microplate Reader. Data Analysis:\n(§5) The software of GraphPad Prism version 5 was used to calculate IC50. […]"}, "[5]": {"molecular_target": "CK2(h) (Homo sapiens, UniProt P68400)", "sequence (P68400 whole entry)": "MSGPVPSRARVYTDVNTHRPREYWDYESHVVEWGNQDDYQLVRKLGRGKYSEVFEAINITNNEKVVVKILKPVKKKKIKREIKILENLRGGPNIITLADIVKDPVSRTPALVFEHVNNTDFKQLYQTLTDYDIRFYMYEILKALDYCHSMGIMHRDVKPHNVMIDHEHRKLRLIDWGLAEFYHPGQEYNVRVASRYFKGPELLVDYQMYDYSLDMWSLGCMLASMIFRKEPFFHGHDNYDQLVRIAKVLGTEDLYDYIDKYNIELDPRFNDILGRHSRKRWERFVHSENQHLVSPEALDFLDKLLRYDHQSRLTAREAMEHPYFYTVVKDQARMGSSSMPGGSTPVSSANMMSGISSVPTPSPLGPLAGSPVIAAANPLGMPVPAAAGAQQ", "sequence (P67870 whole entry partner)": "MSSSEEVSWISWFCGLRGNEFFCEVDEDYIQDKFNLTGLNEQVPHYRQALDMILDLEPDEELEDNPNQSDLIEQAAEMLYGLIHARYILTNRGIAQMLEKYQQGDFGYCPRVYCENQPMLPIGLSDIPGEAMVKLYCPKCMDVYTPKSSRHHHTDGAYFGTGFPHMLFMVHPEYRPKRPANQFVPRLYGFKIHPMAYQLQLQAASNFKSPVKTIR", "experiment": "Enzyme activity, ATP = Km, CK2(h)", "format": "biochemical", "settings": "300 nM of compound, ATP concentration = Km"}, "[6]": {"molecular_target": "Pim-1(h) (Homo sapiens, UniProt P11309)", "sequence (P11309 whole entry)": "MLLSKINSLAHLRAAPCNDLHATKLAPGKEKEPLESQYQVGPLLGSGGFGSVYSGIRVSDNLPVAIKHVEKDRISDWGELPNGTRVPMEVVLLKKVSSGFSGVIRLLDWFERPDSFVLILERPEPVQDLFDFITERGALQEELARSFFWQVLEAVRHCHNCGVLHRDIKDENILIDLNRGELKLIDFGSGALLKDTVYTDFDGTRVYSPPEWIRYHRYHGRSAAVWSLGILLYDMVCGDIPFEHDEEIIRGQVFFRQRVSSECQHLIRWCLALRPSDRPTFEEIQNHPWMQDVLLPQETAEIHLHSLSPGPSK", "experiment": "Enzyme activity, ATP = Km, Pim-1(h)", "format": "biochemical", "settings": "300 nM of compound, ATP concentration = Km"}, "[7]": {"system": "KU812", "experiment": "Cell proliferation inhibition (MTS), KU812", "format": "cell-based, human", "settings": "KU812, 72 h", "protocol": "as §3, §4, §5"}, "[8]": {"system": "CK1(y)", "experiment": "Enzyme activity, ATP = Km, CK1(y)", "format": "biochemical, yeast", "settings": "300 nM of compound, ATP concentration = Km"}, "[9]": {"molecular_target": "CK1γ2(h) (Homo sapiens, UniProt P78368)", "sequence (P78368 whole entry)": "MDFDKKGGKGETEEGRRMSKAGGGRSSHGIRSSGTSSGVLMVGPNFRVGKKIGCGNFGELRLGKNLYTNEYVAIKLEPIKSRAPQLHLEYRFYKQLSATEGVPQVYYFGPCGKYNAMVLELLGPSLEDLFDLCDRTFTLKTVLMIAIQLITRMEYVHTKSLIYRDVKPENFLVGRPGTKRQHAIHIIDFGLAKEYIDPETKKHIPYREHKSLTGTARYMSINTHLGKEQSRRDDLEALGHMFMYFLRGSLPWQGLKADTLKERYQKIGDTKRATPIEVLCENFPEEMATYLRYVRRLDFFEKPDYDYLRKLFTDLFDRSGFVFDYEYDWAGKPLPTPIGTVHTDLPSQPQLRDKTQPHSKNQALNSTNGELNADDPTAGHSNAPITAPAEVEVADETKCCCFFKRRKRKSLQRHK", "experiment": "Enzyme activity, ATP = Km, CK1γ2(h)", "format": "biochemical", "settings": "300 nM of compound, ATP concentration = Km"}, "[10]": {"system": "RPMI-8226", "experiment": "Cell proliferation inhibition (MTS), RPMI-8226", "format": "cell-based, human", "settings": "RPMI 8226, 72 hours", "protocol": "as §1, §2"}}, "data": [{"smiles": "NCC1CCN(c2cc(/C=C3\\SC(=O)NC3=O)ncn2)CC1", "note": "[Compound 11268]", "values": [{"measurement": "Percent Activity of Enzyme Pim-3(h)", "setting": "[1]", "value": 80, "unit": "%"}, {"measurement": "Percent Activity of Enzyme Pim-2(h)", "setting": "[2]", "value": 108, "unit": "%"}, {"measurement": "IC50", "setting": "[3]", "value": "> 30", "unit": "µM"}, {"measurement": "IC50", "setting": "[4]", "value": "> 30", "unit": "µM"}, {"measurement": "Percent Activity of Enzyme CK2(h)", "setting": "[5]", "value": 85, "unit": "%"}, {"measurement": "Percent Activity of Enzyme Pim-1(h)", "setting": "[6]", "value": 115, "unit": "%"}, {"measurement": "IC50", "setting": "[7]", "value": "> 30", "unit": "µM"}, {"measurement": "Percent Activity of Enzyme CK1(y)", "setting": "[8]", "value": 114, "unit": "%"}, {"measurement": "Percent Activity of Enzyme CK1γ2(h)", "setting": "[9]", "value": 95, "unit": "%"}, {"measurement": "IC50", "setting": "[10]", "value": "> 30", "unit": "µM"}]}]}
